# Experiments:
# D1 receptor = test: D1 agonist-induced phosphorylation of PKA substrates in striatal slices; type: cell-based, mouse; conditions: 1 μM, 10 min
# Method: Dopamine achieves many of its effects in neurons by activation of the D1 class of dopamine receptors, which are positively coupled to the activation of PKA. […] For this purpose, the state of phosphorylation of GluR1, DARPP-32, ARPP-21, and ARPP-16 was determined using phosphorylation state-specific antibodies. […] No significant difference was observed between wildtype and p35^−/− mice in basal levels of phosphorylation of any of these substrates.
# Cdk5 [1] = test: Cocaine-induced locomotor activity with intra-accumbens infusion of Cdk5 inhibitors; type: in vivo, rat; conditions: rats, intra-accumbens 40 nmol/0.5 μl
# Method: Doses of cocaine hydrochloride (15 mg/kg i.p. in sterile 0.9% sodium chloride) were chosen to produce a moderate response to cocaine over successive days. […] Drugs were dissolved in sterile phosphate buffered saline containing 50% DMSO. Intracerebral microinfusions were made bilaterally in volumes of 0.5 μl over a period of 2 min with an additional 2 min allowed to elapse prior to removal of the infusion needles and replacement of the stylettes. […] Drugs were given at the same time each day. Subjects were then placed into the chambers and activity was monitored for 60 min.
# Cdk5 [2] = test: Cdk5 mRNA and protein levels in striatum after chronic cocaine; type: in vivo, rat
# Text: FIGS. 8A-8C show the increased expression of Cdk5 in inducible transgenic mice overexpressing ΔFosB and in rats chronically treated with cocaine. […] The positions of oligonucleotides encoding ΔFosB and Cdk5 are indicated. […] Representative labelings are shown for sections from inducible transgenic mice on (Dox) or off doxycycline (H2O) (left) and rats treated chronically with saline or cocaine (right). Quantitation of signals in the caudatoputaman (CP) and nucleus accumbens (NA) are shown. […] Representative Cdk5 immunoblots of striatal tissue dissected from inducible transgenic mice on or off doxycycline (left) and from rats treated chronically with saline or cocaine (right) are shown with quantitation. Data represent means ±SEM for n=6; *p<0.05 compared to control, Student's t test.
# ΔFosB-inducible transgenic mice were either fed […] doxycycline or denied doxycycline for 12 weeks. Adult male Sprague-Dawley rats initially weighing between 160-240 g were injected with cocaine or vehicle (i.p., 20 mg/kg, […]) at the same time each day for 8 days. All analyses were initiated 12 hr after the final dose. For in situ hybridization studies, [α-^35S]UTP-labeled riboprobes were prepared by in vitro transcription from cDNA clones corresponding to full-length clones of rat Cdk5 [Zheng et al., J. Neurobiol. 35:141-159 (1998)]. Cryostat sections were prepared and hybridized as previously described. After hybridization, the sections were exposed to Biomax MR film (Kodak) for 2-6 days. All autoradiograms were analyzed with a Microcomputer Imaging Device system (M4, Imaging Research, Inc.) as described elsewhere [Le Moine and Bloch, J. Comp. Neurol. 355:418426 (1995)]. Statistical analyses of the data were performed using two-tailed unpaired Student's t test. Striatal tissue was rapidly dissected on ice and homogenized in boiling lysis buffer containing 1% SDS and 50 mM sodium flouride with sonication. Striatal slice preparation and treatment were conducted as previously described [Example 1, Bibb et al., Nature 402:669-671 (1999); Nishi et al., J. Neurosci 17:8147-8155 (1997)]. […]
# mouse striatal slices = test: Phosphorylation of PKA substrates in striatal slices treated with roscovitine; conditions: 10 μM, 1 h
# [3] = test system: dissociated striatal neurons; test: Whole-cell voltage-gated Ca2+ current, patch-clamp of dissociated striatal neurons; type: cell-based, mouse; conditions: 10 μM
# Method: The physiological consequence of PKA inhibition by phospho-Thr75 DARPP-32 was also assessed. […] Opin. Neurobiol. 8:330-334 (1998)], were analyzed using patch-clamp recordings of dissociated striatal neurons (FIGS. 3g and 3h). […] This effect was virtually abolished in neurons from DARPP-32 knockout mice (1.6±0.3%, n=5, p<0.01, paired t test).
# [4] = rats, 20 mg/kg i.p. daily for 8 days, in situ hybridization
structure (smiles),measurement,setting,value
Oc1cc2c(c(Cl)c1O)CCNCC2c1ccccc1 (stereo not drawn) [SKF 81297],"phosphorylation of GluR1, DARPP-32, ARPP-21 and ARPP-16 (PKA sites)","D1 receptor; p35−/− mouse striatal slices, versus wildtype",to an even greater extent
same,"phosphorylation of GluR1, DARPP-32, ARPP-21 and ARPP-16 (PKA sites)",D1 receptor; wildtype mouse striatal slices,increased
Cn1cnc2nc(NCCO)nc(NCc3ccccc3)c21 [iso-olomoucine],locomotor or stereotypic responses to cocaine,Cdk5 [1],failed to enhance
COC(=O)[C@H]1[C@@H](OC(=O)c2ccccc2)C[C@@H]2CC[C@H]1N2C [cocaine],Cdk5 protein levels in striatal tissue versus control,"Cdk5 [2]; rats exposed chronically, immunoblot",180±20%
same,Cdk5 mRNA levels in caudatoputamen versus saline,Cdk5 [2]; [4],151.8±11.8%
same,Cdk5 mRNA levels in nucleus accumbens versus saline,Cdk5 [2]; [4],150.5±10.0%
CC[C@H](CO)Nc1nc(NCc2ccccc2)c2ncn(C(C)C)c2n1 [roscovitine],increase in phospho-Ser845 GluR1,mouse striatal slices; striatal slices from DARPP-32−/− mice,not observed
same,Total GluR1 levels,mouse striatal slices; striatal slices,unaffected
same,increase in phosphorylation of ARPP-16 (phospho-Ser88),mouse striatal slices; wildtype mouse striatal slices,2.5±0.2 fold
same,increase in phosphorylation of GluR1 (phospho-Ser845),mouse striatal slices; wildtype mouse striatal slices,3.2±0.5 fold
same,enhancement of whole-cell Ca2+ current,[3]; neurons from DARPP-32 knockout mice,1.6±0.3%
same,enhancement of whole-cell Ca2+ current,[3]; wildtype neurons,9.7% ±1.0%

# Source: US6989362B1, “Methods of treating dopamine dysregulation using agents that regulate phosphorylation/dephosphorylation in dopamine signaling” (The Rockefeller University, priority 1999, dated 2006)
